Source: PubChem BioAssay AID1259407 (Chemical Carcinogenesis Research Information System (CCRIS), 2018)
The source made the active and inactive calls. How the calls were made is not given here.

Tested on: CCRIS mutagenicity, Ames/micronucleus/aberration tests
Experiment: CCRIS mutagenicity studies
[1] = Test System: AMES SALMONELLA TYPHIMURIUM, Strain/Indicator: TA98, Metabolic Activation: NONE, Method: PREINCUBATION
[2] = Test System: AMES SALMONELLA TYPHIMURIUM, Strain/Indicator: TA100, Metabolic Activation: NONE, Method: PREINCUBATION

Measured: mutagenic call

CC(=O)Nc1cccc(O)c1
inactive: Test System: AMES SALMONELLA TYPHIMURIUM, Strain/Indicator: TA97, Metabolic Activation: HAMSTER, LIVER, S-9, AROCLOR 1254 (10 OR 30%), Method: PREINCUBATION inactive; negative | Test System: AMES SALMONELLA TYPHIMURIUM, Strain/Indicator: TA97, Metabolic Activation: NONE, Method: PREINCUBATION inactive; negative | Test System: AMES SALMONELLA TYPHIMURIUM, Strain/Indicator: TA97, Metabolic Activation: RAT, LIVER, S-9, AROCLOR 1254 (10 OR 30%), Method: PREINCUBATION inactive; negative | Test System: AMES SALMONELLA TYPHIMURIUM, Strain/Indicator: TA98, Metabolic Activation: HAMSTER, LIVER, S-9, AROCLOR 1254 (10 OR 30%), Method: PREINCUBATION inactive; negative | [1] inactive; negative | Test System: AMES SALMONELLA TYPHIMURIUM, Strain/Indicator: TA98, Metabolic Activation: RAT, LIVER, S-9, AROCLOR 1254 (10 OR 30%), Method: PREINCUBATION inactive; negative | Test System: AMES SALMONELLA TYPHIMURIUM, Strain/Indicator: TA100, Metabolic Activation: HAMSTER, LIVER, S-9, AROCLOR 1254 (10 OR 30%), Method: PREINCUBATION inactive; negative | [2] inactive; negative | Test System: AMES SALMONELLA TYPHIMURIUM, Strain/Indicator: TA100, Metabolic Activation: RAT, LIVER, S-9, AROCLOR 1254 (10 OR 30%), Method: PREINCUBATION inactive; negative | Test System: AMES SALMONELLA TYPHIMURIUM, Strain/Indicator: TA1535, Metabolic Activation: HAMSTER, LIVER, S-9, AROCLOR 1254 (10 OR 30%), Method: PREINCUBATION inactive; negative | Test System: AMES SALMONELLA TYPHIMURIUM, Strain/Indicator: TA1535, Metabolic Activation: NONE, Method: PREINCUBATION inactive; negative | Test System: AMES SALMONELLA TYPHIMURIUM, Strain/Indicator: TA1535, Metabolic Activation: RAT, LIVER, S-9, AROCLOR 1254 (10 OR 30%), Method: PREINCUBATION inactive; negative

CCNCC#CC(C)(C)OC(=O)C(O)(c1ccccc1)C1CCCCC1 (stereo unspecified)
inactive: Test System: AMES SALMONELLA TYPHIMURIUM, Strain/Indicator: TA98, Metabolic Activation: NONE, Method: STANDARD PLATE inactive; negative | Test System: AMES SALMONELLA TYPHIMURIUM, Strain/Indicator: TA98, Metabolic Activation: RAT, LIVER, S-9, PHENOBARBITAL AND 5,6-BENZOFLAVONE, Method: STANDARD PLATE inactive; negative | Test System: AMES SALMONELLA TYPHIMURIUM, Strain/Indicator: TA100, Metabolic Activation: NONE, Method: STANDARD PLATE inactive; negative | Test System: AMES SALMONELLA TYPHIMURIUM, Strain/Indicator: TA100, Metabolic Activation: RAT, LIVER, S-9, PHENOBARBITAL AND 5,6-BENZOFLAVONE, Method: STANDARD PLATE inactive; negative | Test System: AMES SALMONELLA TYPHIMURIUM, Strain/Indicator: TA1535, Metabolic Activation: NONE, Method: STANDARD PLATE inactive; negative | Test System: AMES SALMONELLA TYPHIMURIUM, Strain/Indicator: TA1535, Metabolic Activation: RAT, LIVER, S-9, PHENOBARBITAL AND 5,6-BENZOFLAVONE, Method: STANDARD PLATE inactive; negative | Test System: AMES SALMONELLA TYPHIMURIUM, Strain/Indicator: TA1537, Metabolic Activation: NONE, Method: STANDARD PLATE inactive; negative | Test System: AMES SALMONELLA TYPHIMURIUM, Strain/Indicator: TA1537, Metabolic Activation: RAT, LIVER, S-9, PHENOBARBITAL AND 5,6-BENZOFLAVONE, Method: STANDARD PLATE inactive; negative | Test System: E. COLI, Strain/Indicator: WP2 UVRA, Metabolic Activation: NONE, Method: STANDARD PLATE inactive; negative | Test System: E. COLI, Strain/Indicator: WP2 UVRA, Metabolic Activation: RAT, LIVER, S-9, PHENOBARBITAL AND 5,6-BENZOFLAVONE, Method: STANDARD PLATE inactive; negative

O=c1c(=O)c2cccc3ccc4cccc1c4c32
inactive: [1] inactive; negative | Test System: AMES SALMONELLA TYPHIMURIUM, Strain/Indicator: TA98, Metabolic Activation: RAT, LIVER, S-9, AROCLOR 1254, Method: PREINCUBATION inactive; negative | [2] inactive; negative | Test System: AMES SALMONELLA TYPHIMURIUM, Strain/Indicator: TA100, Metabolic Activation: RAT, LIVER, S-9, AROCLOR 1254, Method: PREINCUBATION inactive; negative
